This series in a line: Radiochemical purity of [^18F]FES stock solution during storage (radiolysis stability). It is filed as physicochemical. To be noted: for Radio-chemical purity after 10 h storage: sodium ascorbate in purification and formulation (0.45% m/v). On the procedure: Radiochemical purity is the ratio of the radioactivity of the radionuclide agent under chemical form on the total radioactivity of this same radionuclide. Radiochemical purity of the [^18F]FES stock solution is measured. […]

This note sets out measurements from patent US10695450B2, “Synthesis of a radioactive agent composition” (LABORATOIRES CYCLOPHARMA, priority 2016, dated 2020).

Consider `C[C@]12CC[C@@H]3c4ccc(O)cc4CC[C@H]3C1C[C@@H]([18F])[C@@H]2O` (stereo partly drawn) [[^18F]FES, 16α-[^18F]fluoro-17β-estradiol], for which the Radio-chemical purity reads like this: (Example 2: sodium ascorbate during purification only, none in final solution, 250 GBq 18-Fluorine, time of storage 0 hours (end of synthesis)) 99.3%; (Example 2: sodium ascorbate during purification only, none in final solution, 250 GBq 18-Fluorine, time of storage 4 hours) 95%; (Example 2: sodium ascorbate during purification only, none in final solution, 250 GBq 18-Fluorine, time of storage 8 hours) 93%; (Example 2: sodium ascorbate during purification only, none in final solution, 250 GBq 18-Fluorine, time of storage 10 hours) 92%; (Example 4: synthesis in the presence of sodium ascorbate, 164 GBq 18-Fluorine, time of storage 0 hours (end of synthesis)) 98.0%; (Example 4: synthesis in the presence of sodium ascorbate, 164 GBq 18-Fluorine, time of storage 5 hours) 96.8%. The Radio-chemical purity (Example 4: synthesis in the presence of sodium ascorbate, 164 GBq 18-Fluorine, time of storage 10 hours) turned out to be 96.7%. Further, the “Radio-chemical purity after 10 h storage” value was found to be 98.0% (Example 3, batch number 1, 79 GBq 18-Fluorine); 99.0% (Example 3, batch number 2, 99 GBq 18-Fluorine); 96.7% (Example 3, batch number 3, 164 GBq 18-Fluorine); 97.1% (Example 3, batch number 4, 195 GBq 18-Fluorine). For the same molecule, the “Decrease of radiochemical purity after 10 hours of storage” value is, setting by setting: (synthesized in the presence of sodium ascorbate (Example 4, Table 4)) 1.3%; (synthesized without antioxidant (Example 2, Table 2)) 7.3%.
